Test results published in ChEMBL document CHEMBL3734705, “Synthesis and in vitro cytotoxicity of novel C-12 substituted-14-deoxy-andrographolide derivatives as potent anti-cancer agents” (2015).

Legend:
[1] = Cytotoxicity against human RPMI8226 cells assessed as growth level at 10 uM after 48 hrs by SRB assay; assay type: functional, RPMI-8226
SR = assay: Cytotoxicity against human SR cells assessed as growth level at 10 uM after 48 hrs by SRB assay; assay type: functional
EKVX = assay: Cytotoxicity against human EKVX cells assessed as growth level at 10 uM after 48 hrs by SRB assay; assay type: functional
KM12 [2] = assay: Cytotoxicity against human KM12 cells assessed as growth level at 10 uM after 48 hrs by SRB assay; assay type: functional
[3] = Cytotoxicity against human SW620 cells assessed as growth level at 10 uM after 48 hrs by SRB assay; assay type: functional, SW-620
[4] = Cytotoxicity against human SNB75 cells assessed as growth level at 10 uM after 48 hrs by SRB assay; assay type: functional, SNB-75
MDA-MB-435 [5] = assay: Cytotoxicity against human MDA-MB-435 cells assessed as growth level at 10 uM after 48 hrs by SRB assay; assay type: functional
[6] = Cytotoxicity against human UACC257 cells assessed as growth level at 10 uM after 48 hrs by SRB assay; assay type: functional, UACC-257
[7] = Cytotoxicity against human OVCAR3 cells assessed as growth level at 10 uM after 48 hrs by SRB assay; assay type: functional, OVCAR-3
[8] = Cytotoxicity against human OVCAR8 cells assessed as growth level at 10 uM after 48 hrs by SRB assay; assay type: functional, OVCAR-8
[9] = Cytotoxicity against human NCI-ADR-RES cells assessed as growth level at 10 uM after 48 hrs by SRB assay; assay type: functional
[10] = Cytotoxicity against human Hs578T cells assessed as growth level at 10 uM after 48 hrs by SRB assay; assay type: functional, Hs-578T
MDA-MB-468 = assay: Cytotoxicity against human MDA-MB-468 cells assessed as growth level at 10 uM after 48 hrs by SRB assay; assay type: functional
[11] = Cytotoxicity against human HL-60(TB) cells assessed as growth inhibition at 10 uM after 48 hrs by SRB assay; assay type: functional; conditions: HL-60, 48 h, read-out: GI
[12] = Cytotoxicity against human HOP92 cells assessed as growth inhibition at 10 uM after 48 hrs by SRB assay; assay type: functional; conditions: HOP-92, 48 h, read-out: GI
NCI-H322M = assay: Cytotoxicity against human NCI-H322M cells assessed as growth inhibition at 10 uM after 48 hrs by SRB assay; assay type: functional; conditions: read-out: GI
[13] = Cytotoxicity against human HCT15 cells assessed as growth inhibition at 10 uM after 48 hrs by SRB assay; assay type: functional; conditions: HCT-15, 48 h, read-out: GI
HT-29 = assay: Cytotoxicity against human HT-29 cells assessed as growth inhibition at 10 uM after 48 hrs by SRB assay; assay type: functional; conditions: HT-29, 48 h, read-out: GI
KM12 [14] = assay: Cytotoxicity against human KM12 cells assessed as growth inhibition at 10 uM after 48 hrs by SRB assay; assay type: functional; conditions: KM12, 48 h, read-out: GI
[15] = Cytotoxicity against human SNB19 cells assessed as growth inhibition at 10 uM after 48 hrs by SRB assay; assay type: functional; conditions: SNB-19, 48 h, read-out: GI
MDA-MB-435 [16] = assay: Cytotoxicity against human MDA-MB-435 cells assessed as growth inhibition at 10 uM after 48 hrs by SRB assay; assay type: functional; conditions: MDA-MB-435, 48 h, read-out: GI
SK-MEL-5 = assay: Cytotoxicity against human SK-MEL-5 cells assessed as growth inhibition at 10 uM after 48 hrs by SRB assay; assay type: functional; conditions: SK-MEL-5, 48 h, read-out: GI
[17] = Cytotoxicity against human IGROV1 cells assessed as growth inhibition at 10 uM after 48 hrs by SRB assay; assay type: functional; conditions: IGROV-1, 48 h, read-out: GI
[18] = Cytotoxicity against human OVCAR3 cells assessed as growth inhibition at 10 uM after 48 hrs by SRB assay; assay type: functional; conditions: OVCAR-3, 48 h, read-out: GI
786-0 = assay: Cytotoxicity against human 786-0 cells assessed as growth inhibition at 10 uM after 48 hrs by SRB assay; assay type: functional; conditions: 786-0, 48 h, read-out: GI
[19] = Cytotoxicity against human UO31 cells assessed as growth inhibition at 10 uM after 48 hrs by SRB assay; assay type: functional; conditions: UO-31, 48 h, read-out: GI
[20] = Cytotoxicity against human Hs578T cells assessed as growth inhibition at 10 uM after 48 hrs by SRB assay; assay type: functional; conditions: Hs-578T, read-out: GI

Compound: C=C1CC[C@@H]2[C@](C)(COC(C)=O)[C@H](OC(C)=O)CC[C@@]2(C)[C@@H]1CC(NCCCC)C1=CCOC1=O (mixture of isomers)
- Activity [1]: 60.49%
- Activity (SR): 48.54%
- Activity (EKVX): 71.43%
- Activity (KM12 [2]): 92.79%
- Activity [3]: 95.01%
- Activity [4]: 77.87%
- Activity (MDA-MB-435 [5]): 88.61%
- Activity [6]: 85.16%
- Activity [7]: 91.12%
- Activity [8]: 89.63%
- Activity [9]: 87.27%
- Activity [10]: 97.68%
- Activity (MDA-MB-468): 66.18%
- inhibition of growth at 10 µM [11]: 6.18%
- inhibition of growth at 10 µM [12]: 46.7%
- inhibition of growth at 10 µM (NCI-H322M): 3.78%
- inhibition of growth at 10 µM [13]: 3.11%
- inhibition of growth at 10 µM (HT-29): 17.4%
- inhibition of growth at 10 µM (KM12 [14]): 7.21%
- inhibition of growth at 10 µM [15]: 12.7%
- inhibition of growth at 10 µM (MDA-MB-435 [16]): 11.4%
- inhibition of growth at 10 µM (SK-MEL-5): 24%
- inhibition of growth at 10 µM [17]: 20%
- inhibition of growth at 10 µM [18]: 8.88%
- inhibition of growth at 10 µM (786-0): 3.93%
- inhibition of growth at 10 µM [19]: 16%
- inhibition of growth at 10 µM [20]: 2.32%

Compound: C=C1CC[C@@H]2[C@](C)(COC(C)=O)[C@H](OC(C)=O)CC[C@@]2(C)[C@@H]1CC(NCCCCCCCC)C1=CCOC1=O (mixture of isomers)
- Activity [1]: 35.98%
- Activity (SR): 36.8%
- Activity (EKVX): 75.77%
- Activity (KM12 [2]): 68.58%
- Activity [3]: 72.43%
- Activity [4]: 74.62%
- Activity (MDA-MB-435 [5]): 77.59%
- Activity [6]: 61.1%
- Activity [7]: 48.95%
- Activity [8]: 70.96%
- Activity [9]: 87.68%
- Activity [10]: 83.08%
- Activity (MDA-MB-468): 32.04%
- inhibition of growth at 10 µM [11]: 41.1%
- inhibition of growth at 10 µM [12]: 55.4%
- inhibition of growth at 10 µM (NCI-H322M): 1.99%
- inhibition of growth at 10 µM [13]: 33%
- inhibition of growth at 10 µM (HT-29): 29.5%
- inhibition of growth at 10 µM (KM12 [14]): 31.4%
- inhibition of growth at 10 µM [15]: 21.2%
- inhibition of growth at 10 µM (MDA-MB-435 [16]): 22.4%
- inhibition of growth at 10 µM (SK-MEL-5): 49.4%
- inhibition of growth at 10 µM [17]: 29.8%
- inhibition of growth at 10 µM [18]: 51%
- inhibition of growth at 10 µM (786-0): 20.1%
- inhibition of growth at 10 µM [19]: 43.9%
- inhibition of growth at 10 µM [20]: 16.9%
